The text below walks through data of ChEMBL document CHEMBL1201862, “PubChem BioAssay data set” (2004).

Holding throughout (test): inhibition of tumour cell growth, NCI panel, 48 h
Assay [1] concerns M14.
For assay [2], the system named is SF-539.
Assay [3] relates to NCI/ADR-RES.
The test system of assay [4] is ACHN.
The test system of assay [5] is COLO 205.
In assay [6] the test system is SN12C.
Assay [7] deals with A549.
Assay [8] relates to CAKI-1.
For assay [9], the system named is SK-MEL-28.
Assay [10] has as its system SF-295.
The test system of assay [11] is RXF 393.
Assay [12] has as its system SK-MEL-2.
Assay [13] concerns CCRF-CEM.
The test system of assay [14] is HCT-15.
The test system of assay [15] is A498.
Assay [16] has as its system SK-OV-3.
The subject of assay [17] is KM12.
In assay [18] the test system is MDA-N.
Assay [19] has as its system HCC 2998.
The test system of assay [20] is SR.

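How tested: cells in 96-well plates exposed to compound for 48 hours at five concentrations. GI50: concentration for 50% inhibition of growth.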 Activity calls are given as the source filed them. Rule as the data show it: active = GI50 up to about 1.1 µM and inactive = higher. Bounds are passed on as bounds.

On to `COc1cc2c(/C=C3/C(=O)Nc4ccc(O)cc43)c(Cl)[nH]c2cc1C`, for which the GI50 in assay [1] is 0.0897 µM (active); in assay [2], 0.0447 µM (active); in assay [3], 0.249 µM (active); in [4], 0.108 µM (active); in [5], 0.192 µM (active); in [6], 0.197 µM (active). In addition, the GI50 in assay [7] was 0.397 µM (active); in [8], 0.0893 µM (active); in [9], 0.0149 µM (active); in [10], 0.0984 µM (active); in assay [11], 0.176 µM (active); in [12], 0.883 µM (active). Besides, the GI50 in assay [13] was 0.0462 µM (active); in assay [14], 0.107 µM; in [15], 11.4 µM (inactive); in assay [16], 0.0627 µM (active); in assay [17], 0.045 µM (active).
As for `O=C(c1ccsc1)c1nccc2c1cnc1ccccc12`, the GI50 in assay [1], in [2], in assay [3], in assay [4], in assay [5] and in assay [6] was > 100 µM (inactive) in each case. The GI50 in assay [7] was > 100 µM (inactive); in [18], > 100 µM (inactive); in assay [8] it was > 100 µM (inactive); in assay [9] it was > 100 µM (inactive); in [10], 45.5 µM (inactive); in assay [11], 84.9 µM (inactive). Besides, the GI50 in assay [12] is > 100 µM (inactive); in assay [13], > 100 µM (inactive); in [14], above 100 µM; in assay [15] it was 75 µM (inactive); in assay [16], 54.8 µM (inactive); in assay [17], > 100 µM (inactive).
`CCOC(=O)C(CO)c1nc2c([nH]c1=O)c(=O)n(C)c(=O)n2C` (stereo not drawn): the GI50 in assay [1], in assay [2], in assay [3], in assay [4], in [19] and in assay [5] was > 100 µM (inactive) in each case. The GI50 in assay [6], in assay [7], in assay [8], in [9], in [10] and in [12] was > 100 µM (inactive) in each case. Besides, the GI50 in assay [13] is > 100 µM (inactive); in [14], above 100 µM; in assay [20], > 100 µM (inactive); in assay [15] it was 0.608 µM (active); in assay [17] it was > 100 µM (inactive).
On to `O=C(c1cc2ccccc2cc1O)N1CCCCC1`, for which the GI50 in assay [1] was 18.1 µM (inactive); in assay [2] it was 37.3 µM (inactive); in assay [3] it was 23.8 µM (inactive); in [4], 38.2 µM (inactive); in assay [19], 21.2 µM (inactive); in [5] it was 32.7 µM (inactive). Moreover, the GI50 in assay [8] was 50.7 µM (inactive); in [9] it was 41.8 µM (inactive); in [10], 25.4 µM (inactive); in [11], 51.1 µM (inactive); in [12], 17.3 µM (inactive); in assay [13], 14.5 µM (inactive). For the same molecule, the GI50 in [14] is 35.8 µM; in assay [20], 16.7 µM (inactive); in assay [15], 15.2 µM (inactive); in assay [16] it was 42.2 µM (inactive); in assay [17] it was 33.6 µM (inactive).
On to `CCOP(=O)(Cc1nc(C#N)c(N)o1)OCC`, for which the GI50 in assay [4], in assay [19], in assay [5], in assay [6], in [18] and in [8] was > 100 µM (inactive) in each case. Also, the GI50 was > 100 µM (inactive) in assay [9]; > 100 µM (inactive) in [10]; > 100 µM (inactive) in assay [11]; > 100 µM (inactive) in assay [12]; > 100 µM (inactive) in [13]; above 100 µM in [14]. Moreover, the GI50 in assay [20], in [15], in [16] and in assay [17] was > 100 µM (inactive) each time.
Regarding `COc1ccccc1C(=O)OCC1CCCN2CCCCC12` (stereo not drawn), the GI50 in assay [2] was > 100 µM (inactive); in [3], 37.3 µM (inactive); in assay [4] it was > 100 µM (inactive); in [19] it was 17.8 µM (inactive); in [5] it was 21.1 µM (inactive); in [6] it was 29.7 µM (inactive). For the same molecule, the GI50 in assay [7] is 25.8 µM (inactive); in [8], > 100 µM (inactive); in [9], 26.4 µM (inactive); in assay [10], 26.3 µM (inactive); in [11] it was 22.2 µM (inactive); in [12], 54.3 µM (inactive). Moreover, the GI50 in assay [13] is 18.6 µM (inactive); in assay [14], 36.6 µM; in [15], > 100 µM (inactive); in assay [16], > 100 µM (inactive); in assay [17] it was 18.2 µM (inactive).
Consider `COc1ccc(CCNC(=O)Cc2ccccc2CCO)cc1OC`, for which the GI50 in assay [1], in assay [2], in [3], in assay [4], in assay [19] and in [5] was > 100 µM (inactive) each time. Also, the GI50 was > 100 µM (inactive) in [6]; > 100 µM (inactive) in [7]; > 100 µM (inactive) in assay [8]; 52.7 µM (inactive) in assay [9]; > 100 µM (inactive) in [10]; > 100 µM (inactive) in assay [11]. Moreover, the GI50 is > 100 µM (inactive) in assay [12]; > 100 µM (inactive) in assay [13]; 14.9 µM in assay [14]; > 100 µM (inactive) in [20]; > 100 µM (inactive) in assay [15]; > 100 µM (inactive) in [16]. Moreover, the GI50 in assay [17] is > 100 µM (inactive).
On to `O=C1CCCNn2c(nc3ncccc3c2=O)N1`, for which the GI50 in assay [1], in [2], in assay [3], in [4], in [5] and in assay [7] was > 100 µM (inactive) throughout. In addition, the GI50 in assay [18], in assay [8], in [10], in assay [11], in assay [12] and in assay [13] was > 100 µM (inactive) in each case. Also, the GI50 is above 100 µM in [14], > 100 µM (inactive) in [15], > 100 µM (inactive) in [16] and 78.7 µM (inactive) in assay [17].
As to `O=C1/C(=C/c2ccc3c(c2)OCO3)CCC1CN1CCOCC1` (stereo not drawn), the GI50 in [1] was 4.22 µM (inactive); in [2], 13 µM (inactive); in assay [4], 10.7 µM (inactive); in assay [19] it was 8.75 µM (inactive); in [5], 9.73 µM (inactive); in [6], 4.06 µM (inactive). Also, the GI50 was 20.9 µM (inactive) in [7]; 2.04 µM (inactive) in [18]; 3.25 µM (inactive) in [8]; 3.4 µM (inactive) in assay [9]; 18.2 µM (inactive) in [10]; 11.4 µM (inactive) in [11]. In addition, the GI50 in [12] is 12 µM (inactive); in assay [13], 1.54 µM (inactive); in assay [14], 2.94 µM; in assay [20], 1.65 µM (inactive); in [15] it was 14.8 µM (inactive); in [16] it was 18.4 µM (inactive). Moreover, the GI50 in assay [17] is 4.65 µM (inactive).
On to `COc1ccc(C2(c3ccc(OC)cc3)OC(=O)c3cccc4cccc2c34)cc1`, for which the GI50 was 3.78 µM (inactive) in assay [1]; 3.48 µM (inactive) in [2]; 2.72 µM (inactive) in assay [3]; 7.93 µM (inactive) in assay [4]; 3.14 µM (inactive) in assay [19]; 2.81 µM (inactive) in assay [5]. Further, the GI50 in assay [6] was 23.8 µM (inactive); in assay [7], 8.11 µM (inactive); in assay [8], 2.96 µM (inactive); in [10] it was 3.97 µM (inactive); in assay [11], 15.9 µM (inactive); in assay [12] it was 8 µM (inactive). For the same molecule, the GI50 in [13] was 3.18 µM (inactive); in assay [14] it was 4.15 µM; in [20], 2.54 µM (inactive); in assay [15] it was > 100 µM (inactive); in assay [16] it was 6.46 µM (inactive); in [17], 3.85 µM (inactive).
For `CC(C)=CCC[C@](C)(O[C@@H]1O[C@H](CO)[C@@H](O)[C@H](O)[C@H]1O)[C@H]1CC[C@]2(C)[C@@H]1[C@H](O)C[C@@H]1[C@@]3(C)CC[C@@H](O)C(C)(C)[C@@H]3[C@@H](O[C@@H]3O[C@H](CO)[C@@H](O)[C@H](O)[C@H]3O)C[C@]12C.C[C@@H]1O[C@@H](O[C@H]2[C@H](O[C@H]3C[C@]4(C)[C@H](C[C@H](O)[C@@H]5[C@@H]([C@@]6(C)CC[C@H](C(C)(C)O)O6)CC[C@]54C)[C@@]4(C)CC[C@H](O)C(C)(C)[C@H]34)O[C@H](CO)[C@@H](O)[C@@H]2O)[C@H](O)[C@H](O)[C@H]1O`, the GI50 in [1], in assay [2], in [4], in assay [19], in [5] and in assay [6] was > 100 µM (inactive) in each case. Moreover, the GI50 in [7], in assay [18], in assay [8], in assay [9], in assay [10] and in [11] was > 100 µM (inactive) each time. Besides, the GI50 was > 100 µM (inactive) in assay [12]; > 100 µM (inactive) in assay [13]; above 100 µM in [14]; > 100 µM (inactive) in [20]; > 100 µM (inactive) in [15]; > 100 µM (inactive) in assay [16]. Besides, the GI50 in assay [17] was > 100 µM (inactive).
